Measurements published in patent publication US12649750B2, “Macrocyclic compounds, compositions, and methods of using thereof” (Sionna Therapeutics Inc., priority 2022, dated 2026).

How the values were obtained:
[1] = target: T1, NBD1 (Homo sapiens, UniProt P13569); assay: Aggregation analysis using differential static light scattering (DSLS), thermal stability of NBD1 (ΔTagg); type: binding; conditions: ΔTagg versus DMSO control, NBD1 0.2 mg/ml
T1 construct: Purified recombinant NBD1 was produced using previously described methods; made in house
T1 sequence (P13569 423-646 limits assumed): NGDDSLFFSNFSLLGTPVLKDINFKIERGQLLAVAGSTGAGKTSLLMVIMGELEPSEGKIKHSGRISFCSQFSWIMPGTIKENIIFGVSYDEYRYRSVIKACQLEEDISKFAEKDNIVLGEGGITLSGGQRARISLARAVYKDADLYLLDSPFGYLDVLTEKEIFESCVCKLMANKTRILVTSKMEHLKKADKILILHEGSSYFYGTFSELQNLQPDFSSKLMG
How it was run: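 Purified recombinant NBD1 at 0.2 mg/ml in Tris buffer pH7.6 with 2 mM ATP, 5 mM MgCl2, 2 mM DTT and 1% glycerol was mixed with DMSO-dissolved compounds under mineral oil. Plates were heated at 1° C. per minute to 70° C., light scattering imaged every 0.5° C.; Tagg from curve inflection, minus DMSO-control mean.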

[2] = target: T2, CFTR (Homo sapiens, UniProt P13569, DEL508-508); assay: TECC24 AUC fold over DMSO @10 μM, CFTR-mediated transepithelial chloride transport in CF-HBE cells; type: cell-based; conditions: test agent AUC divided by DMSO vehicle AUC, primary CF-HBE cells, ΔF508 homozygous donor, 48 hours incubation
T2 construct: Primary human bronchial epithelial cells from a ΔF508 homozygous CF donor; host or cells: primary human bronchial epithelial cells (CF-HBE), ΔF508 homozygous donor
T2 sequence (P13569 with tags, fused parts or gaps DEL508-508): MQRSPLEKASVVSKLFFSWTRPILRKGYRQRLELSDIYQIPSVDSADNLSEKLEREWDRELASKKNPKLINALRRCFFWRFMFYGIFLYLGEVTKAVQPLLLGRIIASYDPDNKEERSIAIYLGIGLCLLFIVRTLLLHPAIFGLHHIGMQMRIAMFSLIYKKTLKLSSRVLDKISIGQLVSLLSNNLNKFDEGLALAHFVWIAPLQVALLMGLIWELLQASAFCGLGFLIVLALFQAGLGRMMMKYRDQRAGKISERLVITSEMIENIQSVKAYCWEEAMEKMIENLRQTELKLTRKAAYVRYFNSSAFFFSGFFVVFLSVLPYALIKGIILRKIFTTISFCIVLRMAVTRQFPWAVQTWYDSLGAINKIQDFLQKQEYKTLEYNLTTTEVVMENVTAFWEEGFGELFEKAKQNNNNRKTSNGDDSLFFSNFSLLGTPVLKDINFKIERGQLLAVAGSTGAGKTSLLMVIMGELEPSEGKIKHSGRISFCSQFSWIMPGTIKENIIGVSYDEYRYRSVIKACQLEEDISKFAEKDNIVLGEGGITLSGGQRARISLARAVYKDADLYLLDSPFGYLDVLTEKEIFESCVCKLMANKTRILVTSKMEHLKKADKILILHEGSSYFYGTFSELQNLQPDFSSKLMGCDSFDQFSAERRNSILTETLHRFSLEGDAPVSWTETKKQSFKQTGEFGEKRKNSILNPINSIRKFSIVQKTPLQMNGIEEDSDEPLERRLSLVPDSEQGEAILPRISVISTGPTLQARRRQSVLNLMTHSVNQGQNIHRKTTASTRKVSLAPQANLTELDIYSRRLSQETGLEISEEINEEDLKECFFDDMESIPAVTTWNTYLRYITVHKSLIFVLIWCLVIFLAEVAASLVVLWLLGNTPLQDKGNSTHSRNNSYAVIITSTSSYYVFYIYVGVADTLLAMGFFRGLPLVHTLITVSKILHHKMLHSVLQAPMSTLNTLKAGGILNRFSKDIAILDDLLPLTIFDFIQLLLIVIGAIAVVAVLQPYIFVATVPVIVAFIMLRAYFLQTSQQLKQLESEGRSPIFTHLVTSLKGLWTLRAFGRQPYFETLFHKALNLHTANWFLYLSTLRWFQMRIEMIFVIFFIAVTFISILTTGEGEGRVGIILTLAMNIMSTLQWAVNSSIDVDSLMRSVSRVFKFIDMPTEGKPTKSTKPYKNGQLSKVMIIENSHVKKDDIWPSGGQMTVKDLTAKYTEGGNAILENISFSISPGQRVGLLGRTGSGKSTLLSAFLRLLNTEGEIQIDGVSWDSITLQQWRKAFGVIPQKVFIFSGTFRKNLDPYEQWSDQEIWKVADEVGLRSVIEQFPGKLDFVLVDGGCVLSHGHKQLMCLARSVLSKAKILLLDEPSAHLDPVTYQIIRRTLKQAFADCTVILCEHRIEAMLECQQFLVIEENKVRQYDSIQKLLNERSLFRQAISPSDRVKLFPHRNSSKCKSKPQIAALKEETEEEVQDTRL
How it was run: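 Primary ΔF508-homozygous CF bronchial epithelial cells on inserts were incubated 48 h at 36.5 °C with compound in IL-13-containing medium. VT and TEER were then recorded in current-clamp mode (pH 7.4 HEPES bath) with benzamil 10 μM, forskolin 10 μM, then CFTR inhibitor-172 20 μM. The IEQ AUC between forskolin and inhibitor was divided by vehicle AUC.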

Cn1nc2nc1-c1cccc(c1)Oc1c(F)cc3[nH]ccc3c1CCS(=O)(=O)CC(C)(C)CCCC2(C)c1cccc(CCC(=O)O)c1 (single isomer, unassigned) [Compound 95A, 3-[3-(22-fluoro-3,6,10,10-tetramethyl-12,12-dioxo-24-oxa-12λ6-thia-3,4,19,30-tetrazapentacyclo[23.3.1.12,5.015,23.016,20]triaconta-1(29),2(30),4,15,17,20,22,25,27-nonaen-6-yl)phenyl]propanoic Acid]
DSLS 3D (100 μM ΔT) [1]: A (an ΔTagg value less than or equal to 5 °C is marked “A”) | TECC (AUC, 10 μM) [2]: A (a TECC value less than 12 is marked “A”)

Cn1nc2nc1-c1cccc(c1)Oc1c(F)cc3[nH]ccc3c1CCS(=O)(=O)CC(C)(C)CCCC2(C)c1cccc(CCC(=O)O)c1 (single isomer, unassigned) [Compound 95B, 3-[3-(22-fluoro-3,6,10,10-tetramethyl-12,12-dioxo-24-oxa-12λ6-thia-3,4,19,30-tetrazapentacyclo[23.3.1.12,5.015,23.016,20]triaconta-1(29),2(30),4,15,17,20,22,25,27-nonaen-6-yl)phenyl]propanoic Acid]
DSLS 3D (100 μM ΔT) [1]: C (a value greater than 10 °C and less than or equal to 25 °C is marked “C”) | TECC (AUC, 10 μM) [2]: A (a TECC value less than 12 is marked “A”)

[2H]C([2H])([2H])C1(c2cccc(CCC(=O)O)c2)CCCC(C)(C)CS(=O)(=O)CCc2c(c(F)cc3[nH]ccc23)Oc2ccc(F)c(c2)-c2nc1nn2C (single isomer, unassigned) [Compound 96A, 3-[3-[22,28-difluoro-3,10,10-trimethyl-12,12-dioxo-6-(trideuteriomethyl)-24-oxa-12lambda6-thia-3,4,19,30-tetrazapentacyclo-[23.3.1.12,5.015,23.016,20]triaconta-1(29),2(30),4,15,17,20,22,25,27-nonaen-6-yl]phenyl]propanoic Acid]
DSLS 3D (100 μM ΔT) [1]: C (a value greater than 10 °C and less than or equal to 25 °C is marked “C”) | TECC (AUC, 10 μM) [2]: A (a TECC value less than 12 is marked “A”)

[2H]C([2H])([2H])C1(c2cccc(CCC(=O)O)c2)CCCC(C)(C)CS(=O)(=O)CCc2c(c(F)cc3[nH]ccc23)Oc2ccc(F)c(c2)-c2nc1nn2C (single isomer, unassigned) [Compound 96B, 3-[3-[22,28-difluoro-3,10,10-trimethyl-12,12-dioxo-6-(trideuteriomethyl)-24-oxa-12lambda6-thia-3,4,19,30-tetrazapentacyclo-[23.3.1.12,5.015,23.016,20]triaconta-1(29),2(30),4,15,17,20,22,25,27-nonaen-6-yl]phenyl]propanoic Acid]
DSLS 3D (100 μM ΔT) [1]: A (an ΔTagg value less than or equal to 5 °C is marked “A”) | TECC (AUC, 10 μM) [2]: A (a TECC value less than 12 is marked “A”)

Cn1nc2nc1-c1cc(ccc1F)Oc1c(F)cc3[nH]ccc3c1CCS(=O)(=O)CC(C)(C)CCCC2(C)c1cccc(CC(O)CO)c1 (single isomer, unassigned) [Compound 97A, 3-[3-(22,28-difluoro-3,6,10,10-tetramethyl-12,12-dioxo-24-oxa-12λ6-thia-3,4,19,30-tetrazapentacyclo[23.3.1.12,5.015,23.016,20]triaconta-1(29),2(30),4,15,17,20,22,25,27-nonaen-6-yl)phenyl]propane-1,2-diol]
DSLS 3D (100 μM ΔT) [1]: C (a value greater than 10 °C and less than or equal to 25 °C is marked “C”) | TECC (AUC, 10 μM) [2]: A (a TECC value less than 12 is marked “A”)

Cn1nc2nc1-c1cc(ccc1F)Oc1c(F)cc3[nH]ccc3c1CCS(=O)(=O)CC(C)(C)CCCC2(C)c1cccc(CC(O)CO)c1 (single isomer, unassigned) [Compound 97B, 3-[3-(22,28-difluoro-3,6,10,10-tetramethyl-12,12-dioxo-24-oxa-12λ6-thia-3,4,19,30-tetrazapentacyclo[23.3.1.12,5.015,23.016,20]triaconta-1(29),2(30),4,15,17,20,22,25,27-nonaen-6-yl)phenyl]propane-1,2-diol]
DSLS 3D (100 μM ΔT) [1]: A (an ΔTagg value less than or equal to 5 °C is marked “A”) | TECC (AUC, 10 μM) [2]: A (a TECC value less than 12 is marked “A”)

[2H]C([2H])([2H])C1(c2cccc(CCC(=O)O)c2)CCCC(C([2H])([2H])[2H])(C([2H])([2H])[2H])CS(=O)(=O)CCc2c(c(F)cc3[nH]ccc23)Oc2ccc(F)c(c2)-c2nc1nn2C (single isomer, unassigned) [Compound 98A, 3-[3-[22,28-difluoro-3-methyl-12,12-dioxo-6,10,10-tris(trideuteriomethyl)-24-oxa-12lambda6-thia-3,4,19,30-tetrazapentacyclo-[23.3.1.12,5.015,23.016,20]triaconta-1(29),2(30),4,15,17,20,22,25,27-nonaen-6-yl]phenyl]propanoic acid]
DSLS 3D (100 μM ΔT) [1]: C (a value greater than 10 °C and less than or equal to 25 °C is marked “C”) | TECC (AUC, 10 μM) [2]: B (a value between 12-20 is marked “B”)

[2H]C([2H])([2H])C1(c2cccc(CCC(=O)O)c2)CCCC(C([2H])([2H])[2H])(C([2H])([2H])[2H])CS(=O)(=O)CCc2c(c(F)cc3[nH]ccc23)Oc2ccc(F)c(c2)-c2nc1nn2C (single isomer, unassigned) [Compound 98B, 3-[3-[22,28-difluoro-3-methyl-12,12-dioxo-6,10,10-tris(trideuteriomethyl)-24-oxa-12lambda6-thia-3,4,19,30-tetrazapentacyclo-[23.3.1.12,5.015,23.016,20]triaconta-1(29),2(30),4,15,17,20,22,25,27-nonaen-6-yl]phenyl]propanoic acid]
DSLS 3D (100 μM ΔT) [1]: C (a value greater than 10 °C and less than or equal to 25 °C is marked “C”) | TECC (AUC, 10 μM) [2]: C (a value between 20 and 80 is marked “C”)

Cn1nc2nc1-c1cc(ccc1F)Oc1c(F)cc3[nH]ccc3c1Cc1ccn(n1)CCS(=O)(=O)CCC2(C)c1cccc(CCC(=O)O)c1 (single isomer, unassigned) [Compound 100A, 3-[3-(24,30-difluoro-3,6-dimethyl-9,9-dioxo-26-oxa-9λ6-thia-3,4,12,21,32,33-hexazahexacyclo[25.3.1.12,5.112,15.017,25.018,22]tritriaconta-1(31),2(33),4,13,15(32),17,19,22,24,27,29-undecaen-6-yl)phenyl]propanoic Acid]
DSLS 3D (100 μM ΔT) [1]: C (a value greater than 10 °C and less than or equal to 25 °C is marked “C”) | TECC (AUC, 10 μM) [2]: A (a TECC value less than 12 is marked “A”)

Cn1nc2nc1-c1cc(ccc1F)Oc1c(F)cc3[nH]ccc3c1Cc1ccn(n1)CCS(=O)(=O)CCC2(C)c1cccc(CCC(=O)O)c1 (single isomer, unassigned) [Compound 100B, 3-[3-(24,30-difluoro-3,6-dimethyl-9,9-dioxo-26-oxa-9λ6-thia-3,4,12,21,32,33-hexazahexacyclo[25.3.1.12,5.112,15.017,25.018,22]tritriaconta-1(31),2(33),4,13,15(32),17,19,22,24,27,29-undecaen-6-yl)phenyl]propanoic Acid]
DSLS 3D (100 μM ΔT) [1]: A (an ΔTagg value less than or equal to 5 °C is marked “A”) | TECC (AUC, 10 μM) [2]: A (a TECC value less than 12 is marked “A”)

Cc1c2nnn1Cc1c(c(F)cc3[nH]ccc13)Oc1ccc(F)c(c1)-c1nc(nn1C)C(C)(c1cccc(CCC(=O)O)c1)CCS(=O)(=O)C2 (single isomer, unassigned) [Compound 101A, 3-[3-(23,29-difluoro-3,6,31-trimethyl-9,9-dioxo-25-oxa-9lambda6-thia-3,4,12,13,14,20,32-heptazahexacyclo[24.3.1.12,5.111,14.016,24.017,21]-dotriaconta-1(30),2(32),4,11(31),12,16,18,21,23,26,28-undecaen-6-yl)phenyl]propanoic Acid]
DSLS 3D (100 μM ΔT) [1]: A (an ΔTagg value less than or equal to 5 °C is marked “A”) | TECC (AUC, 10 μM) [2]: A (a TECC value less than 12 is marked “A”)

Cc1c2nnn1Cc1c(c(F)cc3[nH]ccc13)Oc1ccc(F)c(c1)-c1nc(nn1C)C(C)(c1cccc(CCC(=O)O)c1)CCS(=O)(=O)C2 (single isomer, unassigned) [Compound 101B, 3-[3-(23,29-difluoro-3,6,31-trimethyl-9,9-dioxo-25-oxa-9lambda6-thia-3,4,12,13,14,20,32-heptazahexacyclo[24.3.1.12,5.111,14.016,24.017,21]-dotriaconta-1(30),2(32),4,11(31),12,16,18,21,23,26,28-undecaen-6-yl)phenyl]propanoic Acid]
DSLS 3D (100 μM ΔT) [1]: B (a value above 5 °C and less than or equal to 10 °C is marked “B”) | TECC (AUC, 10 μM) [2]: A (a TECC value less than 12 is marked “A”)

Cn1nc2nc1-c1cc(ccc1F)Oc1c(F)cc3[nH]ccc3c1CCS(=O)(=O)CC(F)(F)C(C)(C)CCC2(C)c1cccc(CCC(=O)O)c1 (single isomer, unassigned) [Compound 102A, 3-[3-[10,10,22,28-tetrafluoro-3,6,9,9-tetramethyl-12,12-dioxo-24-oxa-12lambda6-thia-3,4,19,30-tetrazapentacyclo[23.3.1.12,5.015,23.016,20]-triaconta-1(29),2(30),4,15,17,20,22,25,27-nonaen-6-yl]phenyl]propanoic Acid]
DSLS 3D (100 μM ΔT) [1]: A (an ΔTagg value less than or equal to 5 °C is marked “A”) | TECC (AUC, 10 μM) [2]: A (a TECC value less than 12 is marked “A”)
